# Laboratory results reported in ChEMBL document CHEMBL5465560, “Selectivity Literature for EUbOPEN Chemogenomic Library” (2024).
# Residue numbers refer to the chain shown, from its start.
# Experiments:
# Conditions in all cases: at 10 µM
# [1] = molecular target: Receptor-type tyrosine-protein kinase FLT3 (Homo sapiens) (UniProt P36888); assay: (§1) Selectivity interaction (KinomeScan (DiscoverX)) EUB0000618a FLT3
# [2] = tested on: T1, Receptor-type tyrosine-protein kinase FLT3 (Homo sapiens), P36888 [D835Y]; assay: as §1
# T1 sequence (whole entry): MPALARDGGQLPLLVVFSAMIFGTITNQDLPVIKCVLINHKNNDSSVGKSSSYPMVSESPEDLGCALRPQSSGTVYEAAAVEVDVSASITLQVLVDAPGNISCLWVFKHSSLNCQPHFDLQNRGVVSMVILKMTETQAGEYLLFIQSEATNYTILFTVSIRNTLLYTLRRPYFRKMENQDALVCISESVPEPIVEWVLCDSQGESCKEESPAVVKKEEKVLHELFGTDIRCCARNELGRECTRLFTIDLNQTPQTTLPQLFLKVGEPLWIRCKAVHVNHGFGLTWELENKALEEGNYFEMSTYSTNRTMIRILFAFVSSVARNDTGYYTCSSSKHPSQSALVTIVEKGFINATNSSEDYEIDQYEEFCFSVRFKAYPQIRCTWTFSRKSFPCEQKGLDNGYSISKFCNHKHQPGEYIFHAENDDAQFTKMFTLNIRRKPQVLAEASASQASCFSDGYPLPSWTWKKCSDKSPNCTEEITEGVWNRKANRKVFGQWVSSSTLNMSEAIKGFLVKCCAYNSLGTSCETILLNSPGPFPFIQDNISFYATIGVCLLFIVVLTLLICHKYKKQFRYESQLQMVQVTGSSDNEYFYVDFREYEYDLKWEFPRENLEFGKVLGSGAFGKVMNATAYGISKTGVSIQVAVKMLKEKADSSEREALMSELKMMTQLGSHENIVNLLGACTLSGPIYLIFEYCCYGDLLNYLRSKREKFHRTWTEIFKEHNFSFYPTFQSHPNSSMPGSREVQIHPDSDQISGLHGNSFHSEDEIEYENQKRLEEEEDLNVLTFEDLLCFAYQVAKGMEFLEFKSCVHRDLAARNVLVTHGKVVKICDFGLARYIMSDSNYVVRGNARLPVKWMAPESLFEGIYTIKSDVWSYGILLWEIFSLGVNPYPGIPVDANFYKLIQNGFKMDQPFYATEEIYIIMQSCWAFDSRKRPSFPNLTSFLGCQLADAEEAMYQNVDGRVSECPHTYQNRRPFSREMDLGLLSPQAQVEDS
# [3] = tested on: T2, Receptor-type tyrosine-protein kinase FLT3 (Homo sapiens), P36888 [R834Q]; assay: as §1
# T2 sequence (whole entry): T1 sequence (whole entry) with R834Q, Y835D
# [4] = tested on: T3, Receptor-type tyrosine-protein kinase FLT3 (Homo sapiens), P36888 [K663Q]; assay: as §1
# T3 sequence (whole entry): T1 sequence (whole entry) with K663Q, Y835D
# [5] = tested on: Receptor-type tyrosine-protein kinase FLT3 (Homo sapiens), P36888 [UNDEFINED MUTATION]; assay: as §1
smiles,measurement,setting,value
O[C@H]1CC[C@H](Nc2ncc3nc(Nc4c(F)cc(F)cc4F)n([C@H]4CCOC4)c3n2)CC1,% of control,[1],97%
same,% of control,[2],100%
same,% of control,[3],91%
same,% of control,[4],100%
same,% of control,[5],90%
